Test results reported in article PMC8997399, “High-Throughput Screening to Identify Inhibitors of Plasmodium falciparum Importin α” (Cells, 2022).
Read-outs that look alike come from different tables or passages of the source.

Columns and labels:
PfIMPα [1] = molecular target: T1, PfIMPα (Plasmodium falciparum, UniProt Q8IAW0); assay: biochemical; format: binding; details: for % Inhibition of IMPα-NLS Interaction PfIMPα: compounds at 10 μM, PfIMPα (10 nM):TGS1-NLS-GFP (60 nM), relative to 1% DMSO control, quadruplicate
Protocol: (§1) PfIMPα, TgIMPα, Mus musculus IMPα (MmIMPα), ΔIBBMmIMPα, and β1 (MmIMPβ) GST fusion proteins were expressed and purified essentially as previously. His-tagged TGS1-NLS-GFP, PfIMPα and TgIMPα proteins were purified using Ni^2+-affinity chromatography as described. His-tagged SV40 T-ag-NLS-GFP was purified as previously. Biotinylation of GST-tagged proteins was carried out using the Sulfo-NHS-Biotin reagent (Pierce, Rockford, IL, USA) as described previously. AlphaScreen binding assay was performed as described previously.
Then, 10 nM biotinylated PfIMPα and 60 nM TGS1-NLS-GFP were used with library compounds, screened at 10 µM final concentration.
Briefly, 5 μL of each compound in DMSO was added to quadruplicate wells of a 384-well plate along with appropriate controls including DMSO alone and ivermectin, as previously, using a JANUS Modular Dispense Technology (MDT) robotic system (PerkinElmer, Waltham, MA, USA). This was followed by successive 7 and 5 μL additions, respectively, of PfIMPα (10 nM) and TGS1-NLS-GFP (60 nM) or PBS (“no bait” control), respectively, and 30 min incubation at room temperature. […] Then, 4 µL of the AlphaScreen donor beads (1/40 dilution of GSH. acceptor beads in PBS) was finally added to each well using a Multidrop, followed by a further incubation of 2 h at room temperature in the dark.
(§2) Plates were read for an Alphascreen signal on an Envision plate reader (PerkinElmer, Waltham, MA, USA), with signals from the negative control wells (no bait control) on each plate subtracted.

PfIMPα [2] = molecular target: T1, PfIMPα; assay: Thermostability assay (TSA), PfIMPα; format: binding
Protocol: (§3) The effect of inhibitory compounds on IMPα thermostability was tested, as previously, using the fluorescent dye SYPRO Orange (Thermo Fisher Scientific, Waltham, MA, USA) and the Qiagen Rotor-Gene Q6 plex instrument programmed in the melt curve mode. Increasing concentrations of compound in 0.5 µL DMSO were added to 24.5 µL recombinant protein (2 µM) in phosphate-buffered saline (PBS). Next, 1 µL of SYPRO Orange dye was added, the reaction mixture heated at 0.5 °C/min from 27 °C to 90 °C, and the fluorescence intensity caused by the SYPRO Orange binding to the proteins monitored (excitation/emission: 530/555 nm). Tm is the temperature at which 50% of the protein is unfolded.

TgIMPα [3] = molecular target: T2, TgIMPα (Toxoplasma gondii, UniProt A0A125YID0); assay: biochemical; format: binding; details: for % Inhibition of IMPα-NLS Interaction TgIMPα: compounds at 10 μM, TgIMPα (5 nM):T-ag-NLS-GFP (30 nM), relative to 1% DMSO control
Protocol: as §1, §2

P. falciparum 3D7 strain = assay: P. falciparum growth inhibition assay (HRP2 sandwich ELISA); format: cell-based, Plasmodium falciparum
Protocol: Red blood cells (RBCs) were derived from blood from volunteers (approval from the Institute Ethics Committee, IIT Bombay, Mumbai, India) by density gradient centrifugation. Aliquots of cryopreserved P. falciparum 3D7 strain in human red blood cells (RBCs—3% hematocrit, <5% parasitemia) were thawed and cultured using RPMI (Roswell Park Memorial Institute) 1640 medium supplemented with 0.5% Albumax (Gibco^TM, Waltham, MA, USA), 50 mg/L hypoxanthine (Sigma-Aldrich, St Louis, MO, USA), 2 g/L D-glucose (Sigma-Aldrich, St Louis, MO, USA), 2 g/L sodium bicarbonate (Sigma-Aldrich, St Louis, MO, USA), and 56 mg/L of gentamicin (Abbott, Chicago, IL, USA) at 37 °C in 5% CO2 in a humidified incubator according to the standard procedures; suspension cultures were maintained at 3% hematocrit and <5% parasitemia, by adding a fresh medium daily and a regular addition of fresh human RBCs.
Before growth inhibition assays, cultures were synchronized using 5% D-sorbitol (Sigma-Aldrich, St Louis, MO, USA) predominantly to obtain the ring stage of the P. falciparum life cycle.
Growth assays in the absence and presence of inhibitors were performed using the Histidine–Rich Protein 2 (HRP2) sandwich horseradish peroxidase-linked immunosorbent assay to measure HRP2 protein levels as an indicator of growth. Briefly, 25 µL of compound was added to 96-well microculture plates (Eppendorf, Hamburg, Germany) of 0.25% (with fresh RBCs), and added at a hematocrit of 3%. The plates were then incubated for 72 h at 37 °C in a humidified incubator, sparged with 5% CO2. 72 h later, the plates were subjected to freeze–thaw to achieve hemolysis, and samples diluted 200-fold in H2O in transferring to another plate. A day prior to analysis, 96-well ELISA plates (Sigma-Aldrich, St Louis, MO, USA) were coated overnight at 4 °C with 100 µL of 1 μg/mL IgM capture antibody MPFM-55A (Immunology Consultants Laboratory, Portland, OR, USA) specific for P. falciparum HRP2. After blocking for 2 h at room temperature with 2% BSA in PBS, diluted samples were added to the wells, followed by incubation for 2 h, then the plates were washed three times with 0.05% Tween 20 in PBS. Next, 100 µL of the secondary antibody MPFG-55P (Immunology Consultants Laboratory, Portland, OR, USA) conjugated with horseradish peroxidase (0.25 μg/mL in PBS with 2% BSA) was then added to each well, and the plates incubated for 1 h at room temperature, prior to being washed three times, and 100 µL 3,3′, 5,5′ tetramethylbenzidine substrate (BD Biosciences, San Jose, CA, USA) being added. After 10 min incubation in the dark, 50 µL of 1 M H2SO4 was added and the absorbance was read at 450 nm on a Multiscan™ FC Microplate Spectrophotometer (Thermo Fisher Scientific, Waltham, MA, USA).

TgIMPα [4] = molecular target: T2, TgIMPα; assay: Thermostability assay (TSA), TgIMPα; format: binding
Protocol: as §3

MmIMPα = molecular target: T3, MmIMPα (Mus musculus, UniProt P52293); assay: Thermostability assay (TSA), MmIMPα; format: binding
T3 construct: GST; made in house
Protocol: as §3

[5] = pooled, mean ± SEM (n = 3), read-out: IC50 TgIMPα:T-ag-NLS-GFP
[6] = 10 µM, 72 h, 0.25% parasitemia (Figure 5A)
[7] = concentrations of 75 µM or higher
[8] = concentrations higher than 20 µM

T1 sequence (Q8IAW0 entry or part of it): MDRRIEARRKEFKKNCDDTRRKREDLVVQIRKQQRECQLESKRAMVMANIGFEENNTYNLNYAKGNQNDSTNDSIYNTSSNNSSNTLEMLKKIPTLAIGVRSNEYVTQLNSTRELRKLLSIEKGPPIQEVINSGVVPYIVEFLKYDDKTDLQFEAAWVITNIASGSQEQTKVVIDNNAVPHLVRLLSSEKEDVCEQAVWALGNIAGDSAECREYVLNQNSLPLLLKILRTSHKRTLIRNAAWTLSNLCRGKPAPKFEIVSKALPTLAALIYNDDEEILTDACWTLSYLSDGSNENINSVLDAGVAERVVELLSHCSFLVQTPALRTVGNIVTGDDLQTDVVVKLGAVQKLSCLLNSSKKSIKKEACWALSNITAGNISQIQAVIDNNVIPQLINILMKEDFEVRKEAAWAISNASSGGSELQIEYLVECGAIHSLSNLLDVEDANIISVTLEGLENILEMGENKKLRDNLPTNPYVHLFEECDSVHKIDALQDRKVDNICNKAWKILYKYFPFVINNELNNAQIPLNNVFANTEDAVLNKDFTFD
T2 sequence (A0A125YID0 entry or part of it): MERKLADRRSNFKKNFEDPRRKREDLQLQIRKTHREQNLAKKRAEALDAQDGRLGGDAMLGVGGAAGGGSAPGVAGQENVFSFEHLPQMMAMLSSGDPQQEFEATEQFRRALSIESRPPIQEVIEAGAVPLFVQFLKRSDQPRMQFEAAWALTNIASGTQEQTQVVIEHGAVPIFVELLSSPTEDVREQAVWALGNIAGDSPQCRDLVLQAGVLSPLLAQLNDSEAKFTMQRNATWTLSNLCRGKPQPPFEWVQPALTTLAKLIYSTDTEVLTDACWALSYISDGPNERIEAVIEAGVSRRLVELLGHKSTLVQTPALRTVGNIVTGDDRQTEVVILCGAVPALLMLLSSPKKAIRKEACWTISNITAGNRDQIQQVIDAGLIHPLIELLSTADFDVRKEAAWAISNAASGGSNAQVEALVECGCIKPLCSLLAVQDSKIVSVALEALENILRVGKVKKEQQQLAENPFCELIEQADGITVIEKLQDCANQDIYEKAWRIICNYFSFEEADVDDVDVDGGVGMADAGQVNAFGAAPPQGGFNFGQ

CC(=O)OC[C@H]1O[C@@H]([S-])[C@H](OC(C)=O)[C@@H](OC(C)=O)[C@@H]1OC(C)=O.CCP(CC)CC.[Au+] [auranofin]
% Inhibition of IMPα-NLS Interaction PfIMPα (PfIMPα [1]): 94% | PfIMPα stable only up to (PfIMPα [2]; concentrations as low as 5 μM): 32–35 °C | reduction of thermostability of PfIMPα (PfIMPα [2]; concentrations as low as 5 μM): 12–15 °C | % Inhibition of IMPα-NLS Interaction TgIMPα (TgIMPα [3]): 90% | IC50 (TgIMPα [3]; [5]): 80 ± 10 nM | IC50 (TgIMPα [3]; single experiment (Figure 3), IMPα 5 nM, NLS 30 nM, read-out: IC50 TgIMPα:T-ag-NLS-GFP): 50 nM | inhibition of P. falciparum growth (HRP2 levels) (P. falciparum 3D7 strain; [6]): > 50% | TgIMPα stable only up to (TgIMPα [4]; concentrations as low as 5 μM): 32–35 °C | reduction of thermostability of TgIMPα (TgIMPα [4]; concentrations as low as 5 μM): 12–15 °C | MmIMPα stable only up to (MmIMPα; concentrations as low as 5 μM): 32–35 °C | reduction of thermostability of MmIMPα (MmIMPα; concentrations as low as 5 μM): 12–15 °C

O=C(/C=C/c1ccc(O)c(O)c1)OCCc1ccccc1 [CAPE, Caffeic acid phenethyl ester]
IC50 (PfIMPα [1]): 1800 ± 300 nM | inhibition at 10 µM (PfIMPα [1]; read-out: % Inhibition of IMPα-NLS Interaction PfIMPα): 84% | increase in thermostability of PfIMPα (PfIMPα [2]; [7]): 2 °C | thermostability of PfIMPα reached (PfIMPα [2]; [7]): 47 °C | IC50 (TgIMPα [3]): 2900 ± 900 nM | inhibition at 10 µM (TgIMPα [3]; read-out: % Inhibition of IMPα-NLS Interaction TgIMPα): 62% | IC50 (P. falciparum 3D7 strain; Plasmodium falciparum, 3D7, 72 h, parasites in culture, pooled, mean ± SD (n = 3)): 7.5 ± 1.1 µM | IC50 (P. falciparum 3D7 strain; Plasmodium falciparum, 3D7, 72 h, single typical experiment (Figure 6)): 6.5 µM | inhibition at 10 µM (P. falciparum 3D7 strain; Plasmodium falciparum, 3D7, 10 µM, 72 h, 0.25% parasitemia (Figure 5A), read-out: inhibition of P. falciparum growth (HRP2 levels)): > 50% | change in stability of TgIMPα (TgIMPα [4]; up to 100 µM): did not elicit any marked change in stability | change in stability of MmIMPα (MmIMPα; up to 100 µM): did not elicit any marked change in stability

CC(C)(C)c1ccc(S(=O)(=O)/C=C/C#N)cc1 [Bay 11-7085]
% Inhibition of IMPα-NLS Interaction PfIMPα (PfIMPα [1]): 75% | increase of stability of PfIMPα (PfIMPα [2]; [8]): 9–11 °C | thermostability of PfIMPα reached (PfIMPα [2]; [8]): 48–50 °C | reduction of stability of PfIMPα (PfIMPα [2]; concentrations up to 10 µM): 6 °C | thermostability of PfIMPα reached (PfIMPα [2]; concentrations up to 10 µM): 39 °C | % Inhibition of IMPα-NLS Interaction TgIMPα (TgIMPα [3]): 0% | IC50 (TgIMPα [3]; [5]): 30400 ± 600 nM | fold higher IC50 for TgIMPα-NLS compared to PfIMPα-TGS-NLS interaction (TgIMPα [3]; selectivity for PfIMPα): ~16 fold | inhibition of P. falciparum growth (HRP2 levels) (P. falciparum 3D7 strain; [6]): ~20% | IC50 (P. falciparum 3D7 strain; parasites in culture, 72 h, pooled, mean ± SD (n = 3)): > 10 µM | TgIMPα stable only up to (TgIMPα [4]; 10–20 µM): 30–36 °C | reduction of thermostability of TgIMPα (TgIMPα [4]; 10–20 µM): 9–15 °C | MmIMPα stable only up to (MmIMPα; 10–20 µM): 30–36 °C | reduction of thermostability of MmIMPα (MmIMPα; 10–20 µM): 9–15 °C
